According to publication PMC10100968, “The Role of Glutamine Synthetase in Regulating Ammonium Assimilation and Iron-Only Nitrogenase Expression in a Photosynthetic Diazotroph” (Microbiology Spectrum, 2023):

Assays:
GlnA1 [1] = target: T1, GlnA1 (Rhodopseudomonas palustris, UniProt Q6N5K7); test: gamma-glutamylhydroxamate formation, absorbance at […] nm; format: biochemical; details: 10 mM ATP, 40 mM MgSO4, 10 mM cysteine, 1 mM EDTA, pH 7.5, 30 °C, deadenylylated enzyme from nitrogen-limited cells
T1 construct: gene glnA; GSI dodecamer; adenylylated at Tyr398 when made in nitrogen-replete medium

GlnA1 [2] = target: T2, GlnA1 (Rhodopseudomonas palustris, UniProt Q6N5K7, Y398A); test: as above; format: biochemical; details: 10 mM ATP, 40 mM hydroxylamine, 40 mM MgSO4, 10 mM cysteine, 1 mM EDTA, pH 7.5, 30 °C; enzyme from LB-grown cells
T2 construct: gene glnA; GSI dodecamer; adenylylated at Tyr398 when made in nitrogen-replete medium
T2 sequence (Q6N5K7 entry or part of it Y398A): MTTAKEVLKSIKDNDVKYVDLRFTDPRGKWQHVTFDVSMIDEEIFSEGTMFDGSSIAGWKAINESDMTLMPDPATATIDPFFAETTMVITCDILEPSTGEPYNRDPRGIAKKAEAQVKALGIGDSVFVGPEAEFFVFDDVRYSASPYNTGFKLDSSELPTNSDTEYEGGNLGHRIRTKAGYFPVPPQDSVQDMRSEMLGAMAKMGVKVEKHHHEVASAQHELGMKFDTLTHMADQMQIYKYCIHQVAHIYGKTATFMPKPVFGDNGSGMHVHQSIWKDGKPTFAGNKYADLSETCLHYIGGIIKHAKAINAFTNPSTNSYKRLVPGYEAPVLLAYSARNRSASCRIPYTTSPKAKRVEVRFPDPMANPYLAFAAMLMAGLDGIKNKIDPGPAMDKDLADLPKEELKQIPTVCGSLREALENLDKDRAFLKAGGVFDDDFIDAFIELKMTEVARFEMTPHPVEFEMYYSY

T1 sequence (Q6N5K7 entry or part of it): as the sequence (Q6N5K7 entry or part of it Y398A) above, with A398Y counted along it

Row | Compound | specific activity (GlnA1 [1]; 10 mM L-glutamate) | specific activity (GlnA1 [1]; 40 mM hydroxylamine) | specific activity (GlnA1 [2])
1 | NO [hydroxylamine] | A large proportion of GlnA1 was deadenylated via mass spectrometric analysis | – | –
2 | N[C@@H](CCC(=O)O)C(=O)O [l-glutamate] | – | A large proportion of GlnA1 was deadenylated via mass spectrometric analysis | GlnA1^Y398A purified from E. coli cells that were grown in LB medium showed a significantly
